Data as given in US20250145596A1, “HETEROCYCLIC GLP-1 AGONISTS” (Gasherbrum Bio, Inc., priority 2022, published 2025).
pEC50: −log10 of the molar value.

Target: T1, GLP-1 Receptor (Homo sapiens, UniProt P43220)
T1 construct: host or cells: HEK293/CRE-Luc
Test: GLP-1R agonist cAMP stimulation assay
Assay type: cell-based
Conditions: HEK293/CRE-Luc cell line stably expressing the GLP-1 Receptor; 30 min at 37° C.; cAMP dynamic 2 Kit
Description: Activation of GLP-1 receptor is known to stimulate cyclic AMP (cAMP) production in cells which indicates primary coupling to the Gas subunit of the G protein heterotrimeric complex.
To optimize functional activity directed toward Gas coupling, a HEK293/CRE-Luc cell line developed by HDB stably expressing the GLP-1 Receptor was used. 200× concentration of compound working solutions were prepared (Agilent Technologies Bravo) with ½ log serial dilution in 384-well Echo LDV plate (Labcyte, Cat #LP-0200). 50 nL/well 200× concentration of compound working solutions were moved to 384-well white low volume plate (Greiner, Cat #784075) using Labcyte ECHO550. 1×10^5 cells/mL HEK293/GLPlR/CRE-LUC (HD Biosciences) cell suspensions prepared with assay buffer [DPBS containing 0.5 mM IBMX (Sigma, Cat #15879) and 0.1% BSA (GENVIEW, Cat #FA016-100g)], 10 μL cell suspensions were added to each well of previous generated assay plate which already contains 50 nL compound at 200× concentration using ThermoFisher Multidrop Combi (1000 cells/well). Seal the plate and incubate at 37° C. with 5% CO2 for 30 min.
After incubation the cAMP assay signal was generated using cAMP dynamic 2 Kit (Cisbio). 5 μL cAMP-d2 working solution was added to each well, followed with 5 μL Anti-cAMP antibody-cryptate working solution added to each well using ThermoFisher Multidrop Combi. Incubate at room temperature for 1 hour protected from light. Read the fluorescence at 665 and 615 nm with Reader PerkinElmer EnVision.
% Activity=100%×(mean RLU of test sample mean RLU of vehicle control)/(mean RLU of MAX control−mean RLU of vehicle control))

T1 sequence (P43220 24-463): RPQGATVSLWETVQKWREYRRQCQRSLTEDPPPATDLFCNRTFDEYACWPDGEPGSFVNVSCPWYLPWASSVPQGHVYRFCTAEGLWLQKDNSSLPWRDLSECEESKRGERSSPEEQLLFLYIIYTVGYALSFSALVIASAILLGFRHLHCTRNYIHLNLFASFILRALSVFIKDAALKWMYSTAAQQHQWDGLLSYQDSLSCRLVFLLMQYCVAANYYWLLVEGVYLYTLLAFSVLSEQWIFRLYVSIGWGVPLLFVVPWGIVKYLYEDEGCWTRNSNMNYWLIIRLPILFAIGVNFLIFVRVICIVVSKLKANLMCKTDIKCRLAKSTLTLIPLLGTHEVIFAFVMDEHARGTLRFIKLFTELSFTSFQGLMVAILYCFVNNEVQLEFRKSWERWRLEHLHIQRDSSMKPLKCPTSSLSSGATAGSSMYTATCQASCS

| SMILES | pEC50 |
| --- | --- |
| CC1(c2ccc(Cl)cc2Cl)Oc2cccc(C3CCN(Cc4ncc(-c5nnc(C(F)(F)F)[nH]5)cc4CC4(C#N)CC4)CC3)c2O1 (single isomer, unassigned) [Example 3, 1-{[2-({4-[2-(2,4-dichlorophenyl)-2-methyl-2H-1,3-benzodioxol-4-yl]piperidin-1-yl}methyl)-5-[5-(trifluoromethyl)-4H-1,2,4-triazol-3-yl]pyridin-3-yl]methyl}cyclopropane-1-carbonitrile] | > 9.00 |
| CC1(c2ccc(Cl)cc2F)Oc2cccc(C3CCN(Cc4ncc(-c5nnc(C(F)(F)F)[nH]5)cc4CC4(C#N)CC4)CC3O)c2O1 (single isomer, unassigned) [Example 23, 1-[(2-{[(3,4-trans)-4-[2-(4-chloro-2-fluorophenyl)-2-methyl-2H-1,3-benzodioxol-4-yl]-3-hydroxypiperidin-1-yl]methyl}-5-[5-(trifluoromethyl)-4H-1,2,4-triazol-3-yl]pyridin-3-yl)methyl]cyclopropane-1-carbonitrile] | 7.00 to 9.00 |
| C[C@]1(c2ccc(Cl)cn2)Oc2cccc(C3CCN(Cc4ncc(-c5nnc(C(F)(F)F)[nH]5)cc4CC4(C#N)CC4)CC3F)c2O1 (single isomer, unassigned) [Example 25] | > 9.00 |
| C[C@]1(c2ccc(Cl)cc2F)Oc2c(F)ccc(C3CCN(Cc4ncc(-c5nnc(C(F)(F)F)[nH]5)cc4CC4(C#N)CC4)CC3F)c2O1 (single isomer, unassigned) [Example 29] | > 9.00 |
| CC1(c2ccc(Cl)cc2Cl)Oc2cccc(C3CCN(Cc4ncc(-c5nnc(C(F)(F)F)[nH]5)cc4CC4(C#N)CC4)CC3)c2O1 (stereo not drawn) [Example 1, 1-{[2-({4-[2-(2,4-dichlorophenyl)-2-methyl-2H-1,3-benzodioxol-4-yl]piperidin-1-yl}methyl)-5-[5-(trifluoromethyl)-4H-1,2,4-triazol-3-yl]pyridin-3-yl]methyl}cyclopropane-1-carbonitrile] | > 9.00 |
| CC1(c2ccc(F)cc2Cl)Oc2cccc(C3CCN(Cc4ncc(-c5nnc(C(F)(F)F)[nH]5)cc4CC4(C#N)CC4)CC3)c2O1 (stereo not drawn) [Example 4, 1-{[2-({4-[2-(2-chloro-4-fluorophenyl)-2-methyl-2H-1,3-benzodioxol-4-yl]piperidin-1-yl}methyl)-5-[5-(trifluoromethyl)-4H-1,2,4-triazol-3-yl]pyridin-3-yl]methyl}cyclopropane-1-carbonitrile] | > 9.00 |
| Cc1ccc(C2(C)Oc3cccc(C4CCN(Cc5ncc(-c6nnc(C(F)(F)F)[nH]6)cc5CC5(C#N)CC5)CC4)c3O2)c(Cl)c1 (stereo not drawn) [Example 6, 1-((2-((4-(2-(2-Chloro-4-methylphenyl)-2-methylbenzo[d][1,3]dioxol-4-yl)piperidin-1-yl)methyl)-5-(5-(trifluoromethyl)-4H-1,2,4-triazol-3-yl)pyridin-3-yl)methyl)cyclopropane-1-carbonitrile] | > 9.00 |
| Cc1cc(Cl)ccc1C1(C)Oc2cccc(C3CCN(Cc4ncc(-c5nnc(C(F)(F)F)[nH]5)cc4CC4(C#N)CC4)CC3)c2O1 (stereo not drawn) [Example 7, 1-((2-((4-(2-(4-chloro-2-methylphenyl)-2-methylbenzo[d][1,3]dioxol-4-yl)piperidin-1-yl)methyl)-5-(5-(trifluoromethyl)-4H-1,2,4-triazol-3-yl)pyridin-3-yl)methyl)cyclopropane-1-carbonitrile] | > 9.00 |

Results, then the molecule that gave them:

| pEC50 | SMILES |
| --- | --- |
| > 9.00 | CC1(c2ccc(Cl)cc2Cl)Oc2cccc(C3CCN(Cc4ncc(-c5nnc(C(F)(F)F)[nH]5)cc4CC4(C#N)CC4)CC3)c2O1 (single isomer, unassigned) [Example 2, 1-{[2-({4-[2-(2,4-dichlorophenyl)-2-methyl-2H-1,3-benzodioxol-4-yl]piperidin-1-yl}methyl)-5-[5-(trifluoromethyl)-4H-1,2,4-triazol-3-yl]pyridin-3-yl]methyl}cyclopropane-1-carbonitrile] |
| > 9.00 | CC1(c2ccc(Cl)cc2F)Oc2cc(F)cc(C3CCN(Cc4ncc(-c5nnc(C(F)(F)F)[nH]5)cc4CC4(C#N)CC4)CC3)c2O1 (single isomer, unassigned) [Example 13, 1-{[2-({4-[2-(4-chloro-2-fluorophenyl)-6-fluoro-2-methyl-2H-1,3-benzodioxol-4-yl]piperidin-1-yl}methyl)-5-[5-(trifluoromethyl)-4H-1,2,4-triazol-3-yl]pyridin-3-yl]methyl}cyclopropane-1-carbonitrile] |
| > 9.00 | CC1(c2ccc(Cl)cc2F)Oc2cc(F)cc(C3CCN(Cc4ncc(-c5nnc(C(F)(F)F)[nH]5)cc4CC4(C#N)CC4)CC3)c2O1 (single isomer, unassigned) [Example 14, 1-{[2-({4-[2-(4-chloro-2-fluorophenyl)-6-fluoro-2-methyl-2H-1,3-benzodioxol-4-yl]piperidin-1-yl}methyl)-5-[5-(trifluoromethyl)-4H-1,2,4-triazol-3-yl]pyridin-3-yl]methyl}cyclopropane-1-carbonitrile] |
| > 9.00 | CC1(c2ccc(Cl)cc2F)Oc2cccc(C3CCN(Cc4ncc(-c5nnc(C(F)(F)F)[nH]5)cc4CC4(C#N)CC4)CC3O)c2O1 (single isomer, unassigned) [Example 24, 1-[(2-{[(3,4-trans)-4-[2-(4-chloro-2-fluorophenyl)-2-methyl-2H-1,3-benzodioxol-4-yl]-3-hydroxypiperidin-1-yl]methyl}-5-[5-(trifluoromethyl)-4H-1,2,4-triazol-3-yl]pyridin-3-yl)methyl]cyclopropane-1-carbonitrile] |
| > 9.00 | C[C@]1(c2ccc(Cl)cn2)Oc2cccc(C3CCN(Cc4ncc(-c5nnc(C(F)(F)F)[nH]5)cc4CC4(C#N)CC4)CC3F)c2O1 (single isomer, unassigned) [Example 26] |
| > 9.00 | C[C@]1(c2ccc(Cl)cc2F)Oc2cccc(C3CCN(Cc4ncc(-c5nnc(C(F)(F)F)[nH]5)cc4CC4(C#N)CC4)CC3F)c2O1 (single isomer, unassigned) [Example 27] |
| > 9.00 | C[C@]1(c2ccc(Cl)cc2F)Oc2cccc(C3CCN(Cc4ncc(-c5nnc(C(F)(F)F)[nH]5)cc4CC4(C#N)CC4)CC3F)c2O1 (single isomer, unassigned) [Example 28] |
| > 9.00 | C[C@]1(c2ccc(Cl)cc2F)Oc2c(F)ccc(C3CCN(Cc4ncc(-c5nnc(C(F)(F)F)[nH]5)cc4CC4(C#N)CC4)CC3F)c2O1 (single isomer, unassigned) [Example 30] |
| > 9.00 | CC1(c2ccc(F)cc2F)Oc2cccc(C3CCN(Cc4ncc(-c5nnc(C(F)(F)F)[nH]5)cc4CC4(C#N)CC4)CC3)c2O1 (stereo not drawn) [Example 5, 1-{[2-({4-[2-(2,4-difluorophenyl)-2-methyl-2H-1,3-benzodioxol-4-yl]piperidin-1-yl}methyl)-5-[5-(trifluoromethyl)-4H-1,2,4-triazol-3-yl]pyridin-3-yl]methyl}cyclopropane-1-carbonitrile] |
| > 9.00 | CC1(c2ccc(C(F)(F)F)cc2F)Oc2cccc(C3CCN(Cc4ncc(-c5nnc(C(F)(F)F)[nH]5)cc4CC4(C#N)CC4)CC3)c2O1 (stereo not drawn) [Example 8, 1-((2-((4-(2-(2-fluoro-4-(trifluoromethyl)phenyl)-2-methylbenzo[d][1,3]dioxol-4-yl)piperidin-1-yl)methyl)-5-(5-(trifluoromethyl)-4H-1,2,4-triazol-3-yl)pyridin-3-yl)methyl)cyclopropane-1-carbonitrile] |
